Values after ≈ are worked out from the molar mass of the structure shown. Active and inactive are the calls of the source. The calls are words filed in the database; no cut-off is given here.
How the values were obtained:
serum albumin = serum albumin (Homo sapiens, UniProt P02768); assay: Binding affinity to human serum albumin by HPLC analysis; type: ADME, cell-free; conditions: read-out: PB (converted)
[1] = molecular target: T1, Phosphatidylinositol 4,5-bisphosphate 3-kinase catalytic subunit delta isoform (Homo sapiens, UniProt O00329); assay: Inhibition of PI3Kdelta in human whole blood assessed as reduction in cytostim-stimulated IFNgamma production preincubated for 1 hr followed by cytostim stimulation and measured after 20 hrs by electrochemiluminescence assay
T1 sequence (O00329 whole entry): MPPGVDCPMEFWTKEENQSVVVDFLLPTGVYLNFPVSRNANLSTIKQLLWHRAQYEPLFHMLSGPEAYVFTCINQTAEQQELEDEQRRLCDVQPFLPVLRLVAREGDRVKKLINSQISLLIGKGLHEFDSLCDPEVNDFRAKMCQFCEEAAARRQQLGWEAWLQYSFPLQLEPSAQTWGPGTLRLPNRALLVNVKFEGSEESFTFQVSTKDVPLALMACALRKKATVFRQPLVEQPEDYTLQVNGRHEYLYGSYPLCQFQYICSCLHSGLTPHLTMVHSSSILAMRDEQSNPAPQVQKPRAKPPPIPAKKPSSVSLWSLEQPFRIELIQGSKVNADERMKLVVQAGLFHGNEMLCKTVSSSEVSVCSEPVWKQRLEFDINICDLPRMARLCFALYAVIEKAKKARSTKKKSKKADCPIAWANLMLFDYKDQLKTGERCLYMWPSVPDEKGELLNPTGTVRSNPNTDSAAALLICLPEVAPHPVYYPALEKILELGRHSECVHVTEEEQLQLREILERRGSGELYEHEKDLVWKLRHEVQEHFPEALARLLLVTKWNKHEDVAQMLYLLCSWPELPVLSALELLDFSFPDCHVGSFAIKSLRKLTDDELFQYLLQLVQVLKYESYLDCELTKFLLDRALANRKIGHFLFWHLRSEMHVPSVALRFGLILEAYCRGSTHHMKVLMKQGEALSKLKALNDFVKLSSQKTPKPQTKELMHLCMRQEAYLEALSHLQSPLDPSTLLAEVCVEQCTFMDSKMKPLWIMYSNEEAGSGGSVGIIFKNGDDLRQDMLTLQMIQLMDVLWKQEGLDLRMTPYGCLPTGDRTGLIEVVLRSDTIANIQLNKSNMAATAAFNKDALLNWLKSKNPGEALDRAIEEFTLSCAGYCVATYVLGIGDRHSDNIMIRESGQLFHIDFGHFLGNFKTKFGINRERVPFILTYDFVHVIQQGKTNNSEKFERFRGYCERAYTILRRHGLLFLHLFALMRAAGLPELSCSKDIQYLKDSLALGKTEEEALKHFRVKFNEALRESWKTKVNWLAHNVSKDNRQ

[2] = molecular target: Phosphatidylinositol 4,5-bisphosphate 3-kinase catalytic subunit gamma isoform (Homo sapiens, UniProt P48736); assay: Inhibition of recombinant human N-terminal His6-tagged full length P120gamma expressed in baculovirus infected Sf21 insect cells using PIP2 as substrate preincubated for 15 mins followed by substrate addition and measured after 60 mins by HTRF assay
[3] = molecular target: PI3-kinase p110-delta/p85-alpha (Homo sapiens, UniProt O00329); assay: Inhibition of recombinant human N-terminal His6-tagged full length P110delta/full length untagged human p85alpha expressed in baculovirus infected Sf21 insect cells using PIP2 as substrate preincubated for 15 mins followed by substrate addition and measured after 60 mins by HTRF assay
Homo sapiens = species: Homo sapiens; assay: Selectivity ratio of IC50 for inhibition of recombinant human N-terminal His6-tagged full length P110delta/full length untagged human p85alpha expressed in baculovirus infected Sf21 insect cells to IC50 for inhibition of PI3Kdelta in human whole blood
PI3K p110 beta/p85 alpha = PI3K p110 beta/p85 alpha (Homo sapiens, UniProt P42338); assay: Inhibition of recombinant human N-terminal His6-tagged full length P110beta/full length untagged human p85alpha expressed in baculovirus infected Sf21 insect cells using PIP2 as substrate preincubated for 15 mins followed by substrate addition and measured after 60 mins by HTRF assay
[4] = molecular target: PI3-kinase p110-alpha/p85-alpha (Homo sapiens, UniProt P42336); assay: Inhibition of recombinant human N-terminal His6-tagged full length P110alpha/full length untagged human p85alpha expressed in baculovirus infected Sf21 insect cells using PIP2 as substrate preincubated for 15 mins followed by substrate addition and measured after 60 mins by HTRF assay
[5] = Permeability of compound in MDCK cells; type: ADME, cell-based, Canis lupus familiaris; conditions: dog, read-out: permeability
[6] = Fraction unbound in human blood; type: ADME, tissue-based
[7] = Genotoxicity in Salmonella typhimurium by Ames test; type: toxicity; conditions: salmonella enterica subsp. enterica serovar typhimurium
[8] = Half life in Wistar Han rat at 1 mg/kg, po administered via gavage or 1 mg/kg, iv administered as infusion for 1 hr by RP LC-MS/MS analysis; type: ADME, organism-based; conditions: in vivo
[9] = Oral bioavailability in Wistar Han rat at 1 mg/kg administered via gavage by RP LC-MS/MS analysis; type: ADME, organism-based; conditions: in vivo
Mus musculus = assay: Antiinflammatory activity in house dust-mite-induced Balb/c mouse model of inflammation assessed as reduction in BAL IL-5 level at 0.1 to 10 mg/kg administered 7 days prior to HDM re-challenge and measured 4 hrs post-HDM re-challenge; type: functional, organism-based; conditions: dose 0.1-10 mg/kg, time 7.0 day
[10] = Clearance in Wistar Han rat at 1 mg/kg, po administered via gavage or 1 mg/kg, iv administered as infusion for 1 hr by RP LC-MS/MS analysis; type: ADME, organism-based; conditions: in vivo
[11] = Volume of distribution at steady state in Wistar Han rat at 1 mg/kg, po administered via gavage or 1 mg/kg, iv administered as infusion for 1 hr by RP LC-MS/MS analysis; type: ADME, organism-based; conditions: in vivo, read-out: Vdss
in vitro = conditions: human, pooled liver microsomes
Description: Intrinsic clearance in pooled human liver microsomes at 0.5 uM measured up to 45 mins in presence of NADPH by LC-MS/MS analysis

[12] = Lipophilicity, log D of compound by chromatographic method; type: physicochemical
[13] = AUC in Wistar Han rat at 1 mg/kg, po administered via gavage or 1 mg/kg, iv administered as infusion for 1 hr by RP LC-MS/MS analysis; type: ADME, organism-based; parameters: dose 1 mg/kg; conditions: in vivo
[14] = Solubility in pH 6.5 FaSSIF incubated for 4 hrs using crystalline free base of sample by UV-HPLC method; type: physicochemical
[15] = Fraction unbound in rat blood; type: ADME, tissue-based
[16] = Intrinsic clearance in Wistar Han rat liver microsomes at 0.5 uM measured up to 45 mins in presence of NADPH by LC-MS/MS analysis; type: ADME, Microsome; conditions: read-out: CLH
Cytochrome P450 3A4 = Cytochrome P450 3A4 (Homo sapiens, UniProt P08684); assay: Time-dependent inhibition of CYP3A4 in human liver microsomes using midazolam as substrate; type: ADME
[17] = molecular target: T1, Phosphatidylinositol 4,5-bisphosphate 3-kinase catalytic subunit delta isoform; assay: Inhibition of PI3Kdelta in human HL-60 cell extract measured after 2 hrs by kinobeads based chemoproteomic competition binding assay; type: tissue-based
[18] = molecular target: Voltage-gated inwardly rectifying potassium channel KCNH2 (Homo sapiens, UniProt Q12809); assay: Inhibition of human ERG
[19] = Half life in Wistar Han rat at 1 mg/kg, iv administered as infusion for 1 hr by RP LC-MS/MS analysis; type: ADME, organism-based; conditions: in vivo
[20] = molecular target: Phosphatidylinositol 3-kinase catalytic subunit type 3 (Homo sapiens, UniProt Q8NEB9); assay: Inhibition of VPS34 in human HL-60 cell extract measured after 2 hrs by kinobeads based chemoproteomic competition binding assay; type: tissue-based
[21] = Solubility in pH 6.5 FaSSIF incubated for 4 hrs using amorphous form of sample by UV-HPLC method; type: physicochemical
[22] = Volume of distribution at steady state in Wistar Han rat at 1 mg/kg, iv administered as infusion for 1 hr by RP LC-MS/MS analysis; type: ADME, organism-based; conditions: in vivo, read-out: Vdss
[23] = Clearance in Wistar Han rat at 1 mg/kg, iv administered as infusion for 1 hr by RP LC-MS/MS analysis; type: ADME, organism-based; conditions: in vivo

Sequence of serum albumin (P02768 whole entry, canonical isoform): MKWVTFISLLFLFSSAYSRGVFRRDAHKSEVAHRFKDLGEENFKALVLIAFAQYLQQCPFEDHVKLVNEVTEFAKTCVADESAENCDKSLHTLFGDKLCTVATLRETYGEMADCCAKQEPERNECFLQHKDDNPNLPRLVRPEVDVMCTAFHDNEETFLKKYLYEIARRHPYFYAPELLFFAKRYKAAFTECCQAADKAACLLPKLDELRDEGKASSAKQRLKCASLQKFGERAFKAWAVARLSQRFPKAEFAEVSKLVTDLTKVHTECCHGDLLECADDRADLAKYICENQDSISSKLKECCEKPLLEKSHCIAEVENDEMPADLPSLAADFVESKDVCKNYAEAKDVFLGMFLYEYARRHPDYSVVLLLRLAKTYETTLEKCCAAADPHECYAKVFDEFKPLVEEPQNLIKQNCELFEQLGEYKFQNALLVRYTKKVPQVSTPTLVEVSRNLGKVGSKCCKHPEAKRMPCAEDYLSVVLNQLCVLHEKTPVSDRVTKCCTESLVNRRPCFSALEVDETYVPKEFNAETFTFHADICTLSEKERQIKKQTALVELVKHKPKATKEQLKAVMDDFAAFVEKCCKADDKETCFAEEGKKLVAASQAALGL
Sequence of PI3-kinase p110-delta/p85-alpha (P27986 whole entry, one chain of several): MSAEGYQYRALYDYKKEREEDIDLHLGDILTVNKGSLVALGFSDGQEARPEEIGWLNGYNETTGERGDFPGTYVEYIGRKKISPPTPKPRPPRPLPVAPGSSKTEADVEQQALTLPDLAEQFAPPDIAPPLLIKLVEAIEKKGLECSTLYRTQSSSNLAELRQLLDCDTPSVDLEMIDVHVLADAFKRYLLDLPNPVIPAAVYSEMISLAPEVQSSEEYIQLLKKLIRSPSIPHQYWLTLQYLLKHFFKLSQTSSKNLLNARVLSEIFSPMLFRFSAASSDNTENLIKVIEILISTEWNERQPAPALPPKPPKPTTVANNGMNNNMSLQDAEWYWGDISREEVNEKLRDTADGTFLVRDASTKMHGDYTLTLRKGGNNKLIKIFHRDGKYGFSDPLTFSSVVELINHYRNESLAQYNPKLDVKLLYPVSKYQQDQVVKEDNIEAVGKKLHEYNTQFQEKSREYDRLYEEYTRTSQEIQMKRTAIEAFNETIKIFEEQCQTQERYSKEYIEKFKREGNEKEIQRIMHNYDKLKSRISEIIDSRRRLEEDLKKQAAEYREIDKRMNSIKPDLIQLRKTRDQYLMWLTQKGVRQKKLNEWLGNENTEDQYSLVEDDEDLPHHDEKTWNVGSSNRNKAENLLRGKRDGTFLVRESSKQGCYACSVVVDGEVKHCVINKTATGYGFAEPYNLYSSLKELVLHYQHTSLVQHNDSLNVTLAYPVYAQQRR
Sequence of PI3-kinase p110-alpha/p85-alpha (P27986 whole entry): as the sequence (P27986 whole entry, one chain of several) above
Sequence of PI3-kinase p110-alpha/p85-alpha (P42336 whole entry): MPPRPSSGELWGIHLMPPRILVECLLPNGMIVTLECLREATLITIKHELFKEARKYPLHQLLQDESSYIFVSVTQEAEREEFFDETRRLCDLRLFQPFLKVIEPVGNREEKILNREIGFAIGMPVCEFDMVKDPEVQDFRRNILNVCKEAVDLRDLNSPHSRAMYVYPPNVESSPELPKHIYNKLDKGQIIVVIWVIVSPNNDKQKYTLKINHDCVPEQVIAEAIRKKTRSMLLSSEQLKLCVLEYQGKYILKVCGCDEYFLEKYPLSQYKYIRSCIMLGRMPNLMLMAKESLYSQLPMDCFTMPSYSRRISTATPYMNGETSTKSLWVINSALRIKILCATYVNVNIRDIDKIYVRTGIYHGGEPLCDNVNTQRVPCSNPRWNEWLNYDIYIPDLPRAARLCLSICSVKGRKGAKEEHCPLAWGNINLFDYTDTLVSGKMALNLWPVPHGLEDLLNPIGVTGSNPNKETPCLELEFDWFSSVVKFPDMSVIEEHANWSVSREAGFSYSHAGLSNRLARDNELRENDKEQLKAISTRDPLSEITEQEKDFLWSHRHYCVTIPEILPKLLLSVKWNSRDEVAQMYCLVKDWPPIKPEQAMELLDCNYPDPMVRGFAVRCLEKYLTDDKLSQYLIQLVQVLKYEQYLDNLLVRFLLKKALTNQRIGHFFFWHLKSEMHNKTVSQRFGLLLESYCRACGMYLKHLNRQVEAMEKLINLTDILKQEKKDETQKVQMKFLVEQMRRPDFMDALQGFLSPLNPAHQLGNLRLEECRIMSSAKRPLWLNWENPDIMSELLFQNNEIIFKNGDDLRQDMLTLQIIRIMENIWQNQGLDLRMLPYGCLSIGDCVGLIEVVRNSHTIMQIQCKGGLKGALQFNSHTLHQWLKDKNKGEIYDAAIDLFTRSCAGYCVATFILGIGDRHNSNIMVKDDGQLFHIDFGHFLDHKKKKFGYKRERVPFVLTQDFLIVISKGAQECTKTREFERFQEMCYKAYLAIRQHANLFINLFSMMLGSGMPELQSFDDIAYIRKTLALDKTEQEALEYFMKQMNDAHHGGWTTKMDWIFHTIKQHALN
Sequence of PI3K p110 beta/p85 alpha (P27986 whole entry): as the sequence (P27986 whole entry, one chain of several) above
Sequence of PI3K p110 beta/p85 alpha (P42338 whole entry): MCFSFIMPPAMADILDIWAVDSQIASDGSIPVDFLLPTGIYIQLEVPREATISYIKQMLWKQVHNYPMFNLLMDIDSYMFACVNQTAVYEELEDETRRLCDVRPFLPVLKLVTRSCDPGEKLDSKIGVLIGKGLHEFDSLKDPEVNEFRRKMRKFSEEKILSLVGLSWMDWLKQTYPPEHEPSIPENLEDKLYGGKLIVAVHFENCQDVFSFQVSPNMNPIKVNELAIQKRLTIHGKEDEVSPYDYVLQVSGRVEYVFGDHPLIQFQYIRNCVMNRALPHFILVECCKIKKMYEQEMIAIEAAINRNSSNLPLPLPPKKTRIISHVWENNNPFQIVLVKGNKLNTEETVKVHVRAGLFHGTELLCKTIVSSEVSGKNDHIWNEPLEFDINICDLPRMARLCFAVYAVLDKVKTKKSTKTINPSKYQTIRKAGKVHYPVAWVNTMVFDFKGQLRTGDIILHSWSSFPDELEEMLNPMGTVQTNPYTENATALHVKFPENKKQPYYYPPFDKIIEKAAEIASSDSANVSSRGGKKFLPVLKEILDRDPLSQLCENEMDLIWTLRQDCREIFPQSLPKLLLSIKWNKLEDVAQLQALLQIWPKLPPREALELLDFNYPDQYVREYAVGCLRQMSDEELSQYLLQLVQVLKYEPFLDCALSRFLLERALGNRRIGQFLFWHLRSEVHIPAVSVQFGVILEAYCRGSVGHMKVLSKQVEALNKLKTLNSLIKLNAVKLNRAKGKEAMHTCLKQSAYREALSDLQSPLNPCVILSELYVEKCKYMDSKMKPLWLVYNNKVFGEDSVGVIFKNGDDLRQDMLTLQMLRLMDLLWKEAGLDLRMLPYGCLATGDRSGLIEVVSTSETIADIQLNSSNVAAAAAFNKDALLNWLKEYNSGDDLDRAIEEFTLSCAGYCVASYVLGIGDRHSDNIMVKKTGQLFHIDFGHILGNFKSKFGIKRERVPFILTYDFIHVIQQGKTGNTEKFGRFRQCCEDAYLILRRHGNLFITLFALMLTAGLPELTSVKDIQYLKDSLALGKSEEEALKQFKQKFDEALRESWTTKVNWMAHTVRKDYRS
Sequence of Phosphatidylinositol 4,5-bisphosphate 3-kinase catalytic subunit gamma isoform (P48736 whole entry, canonical isoform): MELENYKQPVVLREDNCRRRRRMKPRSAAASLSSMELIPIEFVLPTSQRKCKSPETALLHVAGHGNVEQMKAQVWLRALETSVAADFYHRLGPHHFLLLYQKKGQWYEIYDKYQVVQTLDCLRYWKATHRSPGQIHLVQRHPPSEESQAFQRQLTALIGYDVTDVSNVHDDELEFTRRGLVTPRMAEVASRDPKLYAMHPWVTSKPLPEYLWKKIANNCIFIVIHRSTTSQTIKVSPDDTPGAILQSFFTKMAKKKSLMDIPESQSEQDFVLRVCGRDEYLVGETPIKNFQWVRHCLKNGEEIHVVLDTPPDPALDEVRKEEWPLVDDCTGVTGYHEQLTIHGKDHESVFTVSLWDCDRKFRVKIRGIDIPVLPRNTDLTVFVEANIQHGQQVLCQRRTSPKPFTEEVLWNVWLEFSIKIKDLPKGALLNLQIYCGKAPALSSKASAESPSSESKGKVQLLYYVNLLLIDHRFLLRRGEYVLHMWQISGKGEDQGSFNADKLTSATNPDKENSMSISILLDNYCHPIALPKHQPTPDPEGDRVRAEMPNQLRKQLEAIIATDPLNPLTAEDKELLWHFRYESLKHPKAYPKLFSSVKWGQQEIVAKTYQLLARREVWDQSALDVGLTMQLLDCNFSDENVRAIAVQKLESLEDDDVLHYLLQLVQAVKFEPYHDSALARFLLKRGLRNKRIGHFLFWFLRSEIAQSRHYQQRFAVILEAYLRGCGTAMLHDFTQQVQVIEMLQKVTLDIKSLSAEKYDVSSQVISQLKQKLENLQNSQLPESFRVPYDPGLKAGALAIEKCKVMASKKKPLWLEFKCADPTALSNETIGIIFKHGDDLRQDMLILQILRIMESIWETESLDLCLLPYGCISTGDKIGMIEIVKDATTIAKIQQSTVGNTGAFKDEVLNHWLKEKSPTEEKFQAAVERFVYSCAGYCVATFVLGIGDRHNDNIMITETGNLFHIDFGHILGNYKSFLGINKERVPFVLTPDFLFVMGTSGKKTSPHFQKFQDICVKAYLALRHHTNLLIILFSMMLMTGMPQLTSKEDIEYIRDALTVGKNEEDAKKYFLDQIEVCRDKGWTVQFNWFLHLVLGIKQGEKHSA

| SMILES | IC50 [1] | IC50 [2] | IC50 [3] | IC50 (PI3K p110 beta/p85 alpha) | IC50 [4] | Ki [3] | CLint scaled at 0.75 h, 0.5 µM (in vitro) | chromatographic logD [12] | CLint scaled at 0.5 µM [16] | further results |
| --- | --- | --- | --- | --- | --- | --- | --- | --- | --- | --- |
| COc1ncc(C2=CCOCC2)cc1S(=O)(=O)Nc1ccnc(C)c1 | 316 nM | 3980 nM | 31.6 nM | 316 nM | 3980 nM | – | – | – | – | fraction unbound (serum albumin): 0.21; Ratio IC50 (Homo sapiens): 10 |
| COc1ncc(N2CCOCC2)cc1S(=O)(=O)Nc1ccnc(-c2ccc(CN3CCN(C(C)C)CC3)cc2F)c1 | 6.31 nM | 2000 nM | 0.794 nM | 5010 nM | 1000 nM | 0.0126 nM | < 0.4 mL/min/kg | 1.9 | < 0.46 mL/min/kg | Papp [5]: 2.3 ×10⁻⁶ cm/s; fraction unbound [6]: 0.132; Activity [7]: Non-Toxic; half-life [8]: 2.6 h; bioavailability [9]: 46%; Activity (Mus musculus): Active; clearance [10]: 3.8 mL/min/kg; Vd [11]: 0.5 L/kg; AUC [13]: 2020 ng·h/mL; solubility thermodynamic at 4 h [14]: 899 µg/mL (≈ 1540 µM); fraction unbound [15]: 0.021; TDI (Cytochrome P450 3A4): Not Active |
| COc1ncc(C2=CCOCC2)cc1S(=O)(=O)Nc1cncc(C#CCN2CCN(C(C)C)CC2)c1 | 50.1 nM | 25100 nM | 6.31 nM | 5010 nM | 5010 nM | – | < 0.4 mL/min/kg | 1.8 | 0.54 mL/min/kg | fraction unbound (serum albumin): 0.17; IC50 [17]: 1.58 nM; IC50 [18]: > 50100 nM; half-life [19]: 1 h; IC50 [20]: 100 nM; solubility at 4 h [21]: > 1000 µg/mL; Vd [22]: 0.3 L/kg; clearance [23]: 8.6 mL/min/kg |
| COc1ncc(C2=CCOCC2)cc1S(=O)(=O)Nc1cncc(C)c1 | 3980 nM | 5010 nM | 20 nM | 398 nM | 3160 nM | – | – | – | – | fraction unbound (serum albumin): 0.09; Ratio IC50 (Homo sapiens): 100 |
| COc1ncc(N2CCOCC2)cc1S(=O)(=O)Nc1cncc(-c2ccc(CN3CCCC3)cc2F)c1 | 20 nM | 2510 nM | 3.16 nM | 1580 nM | 1000 nM | – | < 0.4 mL/min/kg | 2.4 | < 0.46 mL/min/kg | half-life [19]: 0.53 h; Vd [22]: 0.6 L/kg; clearance [23]: 8.8 mL/min/kg |
| COc1ncc(C2=CCOCC2)cc1S(=O)(=O)Nc1cncc(-c2ccc(CN3CCN(C(C)C)CC3)cc2)c1 | 12.6 nM | 2510 nM | 0.316 nM | 794 nM | 398 nM | 0.01 nM | 2.28 mL/min/kg | 2.9 | 0.61 mL/min/kg | – |
| COc1ncc(C2=CCOCC2)cc1S(=O)(=O)Nc1cncc(-c2ccc(CN(C)C)cc2)c1 | 79.4 nM | 10000 nM | 7.94 nM | 1000 nM | 5010 nM | – | < 0.4 mL/min/kg | 2 | 0.66 mL/min/kg | – |
| COc1ncc(N2CCOCC2)cc1S(=O)(=O)Nc1ccnc(-c2ccc(CN3CCN(C(C)C)CC3)c(F)c2)c1 | 3.16 nM | 3980 nM | 1.58 nM | 7940 nM | 1580 nM | 0.0501 nM | < 0.4 mL/min/kg | 1.8 | < 0.46 mL/min/kg | – |
| COc1ncc(C2=CCOCC2)cc1S(=O)(=O)Nc1cncc(-c2ccc(CN3CCCC3)cc2)c1 | 31.6 nM | 10000 nM | 5.01 nM | 631 nM | 5010 nM | – | 0.72 mL/min/kg | 2.2 | 0.88 mL/min/kg | – |
| COc1ncc(C2=CCOCC2)cc1S(=O)(=O)Nc1cncc(-c2ccc(CN3C[C@@H](C)O[C@@H](C)C3)cc2)c1 | 25.1 nM | 794 nM | 0.398 nM | 631 nM | 1000 nM | 0.01 nM | 12.9 mL/min/kg | 5.3 | 18.9 mL/min/kg | – |
| COc1ncc(N2CCOCC2)cc1S(=O)(=O)Nc1cncc(-c2ccc(CN3CCCC3)c(F)c2)c1 | 63.1 nM | 10000 nM | 12.6 nM | 2510 nM | 3980 nM | – | < 0.4 mL/min/kg | 2.2 | < 0.46 mL/min/kg | – |

Source: ChEMBL document CHEMBL4825755 (J Med Chem, 2021)
